Common to all, as to type: cell-based
Test [1] deals with E. coli strains (NCTC 4169 and NCTC 9775). Put plainly: Human Red Blood Cell (HRBC) agglutination assay, strain not specified for the result. The settings on record: human RBC + E. coli; strain not stated. As for the experimental part:
(§1) A whole blood (type 0 positive) was acquired from a volunteer and stored with EDTA at 4° C. Before the agglutination experiment, the red blood cells were isolated by centrifugation at 800 rpm for 15 minutes (in order to remove the platelets and plasma). The resulting red blood cells were suspended in phosphate buffered (PBS, pH 7.4) and washed three times to remove EDTA and other blood components, after each wash the supernatant was removed and the remaining cells were resuspended in PBS. Finally, RBC were diluted in 10 ml of PBS to create 1% RBC suspension that was stored at 4° C. until use.
(§2) Standard E. coli strains (NCTC 4169 and NCTC 9775) were grown on TSA plates for 24 h at 37° C. Colony was collected with sterile culturing needle and cells suspended in PBS and washed three times with PBS, after each wash the supernatant was removed. The cells were resuspended in PBS at final concentration of 10^9 cells/ml and stored at 4° C. for an hour.
(§3) The experiments were conducted in round bottom 96-well plate, with final volume 200 μl, made of 98 μl of the 1% RBC suspension, 2 μl extract (or PBS) and 100 μl bacterial suspension or PBS (as control). Extract were prepared in advance at different concentrations in PBS (10 mg/ml, 3 mg/ml, 1 mg/ml, 50 μg/ml and 1 μg/ml). […]

Test [2] deals with E. coli NCTC 9775. Description: Human Red Blood Cell (HRBC) agglutination assay, E. coli NCTC 9775. The conditions noted are these: strain 9775, FIG. 1 Raw C. As for the experimental part: as §1, §2, §3
Test [3] concerns E. coli NCTC 4169. Put plainly: Human Red Blood Cell (HRBC) agglutination assay, E. coli NCTC 4169. The conditions noted are these: strain 4169, FIG. 1 Raw C. As for the experimental part:
as §1, §2, §3

In the case of `O=C[C@@H](O)[C@@H](O)[C@H](O)[C@H](O)CO` [D-mannose, D-Mannose], the “concentration that induced agglutination prevention/inhibition” value in test [1] is 5 to 10 mg/mL. Further, the “D-mannose sensitivity of bacteria-induced RBC agglutination” value was “D-mannose sensitive” in test [2] and “not D-mannose sensitive” in test [3].

For the origin of these results see patent US20190000908A1, “COMPOSITIONS AND METHODS FOR TREATING AND/OR PREVENTING A URINARY TRACT INFECTION” (priority 2017, published 2019).
